Laboratory results taken from ChEMBL document CHEMBL5518215, “Unlocking Antibacterial Potential: Key-Site-Based Regulation of Antibacterial Spectrum of Peptides” (J Med Chem, 2024).

What was measured:
[1] = test system: Escherichia coli; experiment: Antimicrobial activity against Escherichia coli 25922 assessed as absence bacterial growth measured after 18 to 24 hrs incubation by NCCLS method; type: functional; conditions: time 18-24 hrs
[2] = test system: Escherichia coli; experiment: Antimicrobial activity against Escherichia coli K88 assessed as absence bacterial growth measured after 18 to 24 hrs incubation by NCCLS method; type: functional; conditions: time 18-24 hrs
[3] = test system: Salmonella typhimurium; experiment: Antimicrobial activity against Salmonella typhimurium 14028 assessed as absence bacterial growth measured after 18 to 24 hrs incubation by NCCLS method; type: functional, Salmonella enterica subsp. enterica serovar Typhimurium; conditions: Salmonella enterica, time 18-24 hrs
[4] = Antimicrobial activity against Salmonella pullorum C7913 assessed as absence bacterial growth measured after 18 to 24 hrs incubation by NCCLS method; type: functional, Salmonella enterica subsp. enterica serovar Pullorum; conditions: Salmonella enterica, time 18-24 hrs
[5] = test system: Pseudomonas aeruginosa; experiment: Antimicrobial activity against Pseudomonas aeruginosa 27853 assessed as absence bacterial growth measured after 18 to 24 hrs incubation by NCCLS method; type: functional; conditions: time 18-24 hrs
[6] = test system: Acinetobacter baumannii; experiment: Antimicrobial activity against Acinetobacter baumannii 1.6769 assessed as absence bacterial growth measured after 18 to 24 hrs incubation by NCCLS method; type: functional; conditions: time 18-24 hrs
[7] = test system: Enterococcus faecalis; experiment: Antimicrobial activity against Enterococcus faecalis 29212 assessed as absence bacterial growth measured after 18 to 24 hrs incubation by NCCLS method; type: functional; conditions: time 18-24 hrs
[8] = test system: Listeria monocytogenes; experiment: Antimicrobial activity against Listeria monocytogenes 1.10753 assessed as absence bacterial growth measured after 18 to 24 hrs incubation by NCCLS method; type: functional; conditions: time 18-24 hrs
[9] = test system: Bacillus cereus; experiment: Antimicrobial activity against Bacillus cereus 1.932 assessed as absence bacterial growth measured after 18 to 24 hrs incubation by NCCLS method; type: functional; conditions: time 18-24 hrs
[10] = test system: Staphylococcus aureus; experiment: Antimicrobial activity against Staphylococcus aureus 29213 assessed as absence bacterial growth measured after 18 to 24 hrs incubation by NCCLS method; type: functional; conditions: time 18-24 hrs
[11] = test system: Staphylococcus aureus; experiment: Antimicrobial activity against Methicillin-resistant Staphylococcus aureus 43300 assessed as absence bacterial growth measured after 18 to 24 hrs incubation by NCCLS method; type: functional; conditions: time 18-24 hrs
[12] = test system: Staphylococcus epidermidis; experiment: Antimicrobial activity against Staphylococcus epidermidis 12228 assessed as absence bacterial growth measured after 18 to 24 hrs incubation by NCCLS method; type: functional; conditions: time 18-24 hrs
[13] = test system: Staphylococcus aureus; experiment: Antimicrobial activity against Staphylococcus aureus 29213 assessed as absence bacterial growth measured after 18 to 24 hrs incubation by NCCLS m; type: functional; conditions: time 18-24 hrs
[14] = test system: Escherichia coli; experiment: Antimicrobial activity against Escherichia coli 25922 assessed as bacterial killing measured after 16 hrs incubation; type: functional
[15] = test system: Escherichia coli; experiment: Antimicrobial activity against Escherichia coli K88 assessed as bacterial killing measured after 16 hrs incubation; type: functional
[16] = test system: Salmonella typhimurium; experiment: Antimicrobial activity against Salmonella typhimurium 14028 assessed as bacterial killing measured after 16 hrs incubation; type: functional, Salmonella enterica subsp. enterica serovar Typhimurium; conditions: Salmonella enterica
[17] = test system: Salmonella typhimurium; experiment: Antimicrobial activity against Salmonella typhimurium C7731 assessed as bacterial killing measured after 16 hrs incubation; type: functional, Salmonella enterica subsp. enterica serovar Typhimurium; conditions: Salmonella enterica
[18] = Antimicrobial activity against Salmonella pullorum C7913 assessed as bacterial killing measured after 16 hrs incubation; type: functional, Salmonella enterica subsp. enterica serovar Pullorum; conditions: Salmonella enterica
[19] = test system: Pseudomonas aeruginosa; experiment: Antimicrobial activity against Pseudomonas aeruginosa 27853 assessed as bacterial killing measured after 16 hrs incubation; type: functional
[20] = test system: Acinetobacter baumannii; experiment: Antimicrobial activity against Acinetobacter baumannii 1.6769 assessed as bacterial killing measured after 16 hrs incubation; type: functional
[21] = test system: Enterococcus faecalis; experiment: Antimicrobial activity against Enterococcus faecalis 29212 assessed as bacterial killing measured after 16 hrs incubation; type: functional
[22] = test system: Listeria monocytogenes; experiment: Antimicrobial activity against Listeria monocytogenes 1.10753 assessed as bacterial killing measured after 16 hrs incubation; type: functional
[23] = test system: Bacillus cereus; experiment: Antimicrobial activity against Bacillus cereus 1.932 assessed as bacterial killing measured after 16 hrs incubation; type: functional
[24] = test system: Staphylococcus aureus; experiment: Antimicrobial activity against Staphylococcus aureus 29213 assessed as bacterial killing measured after 16 hrs incubation; type: functional
[25] = test system: Staphylococcus aureus; experiment: Antimicrobial activity against Methicillin-resistant Staphylococcus aureus 43300 assessed as bacterial killing measured after 16 hrs incubation; type: functional
[26] = test system: Staphylococcus epidermidis; experiment: Antimicrobial activity against Staphylococcus epidermidis 12228 assessed as bacterial killing measured after 16 hrs incubation; type: functional
[27] = test system: Staphylococcus aureus; experiment: Antimicrobial activity against Staphylococcus aureus 25923 assessed as bacterial killing measured after 16 hrs incubation; type: functional
[28] = test system: Salmonella typhimurium; experiment: Antimicrobial activity against Salmonella typhimurium C7731 assessed as absence bacterial growth measured after 18 to 24 hrs incubation by NCCLS method; type: functional, Salmonella enterica subsp. enterica serovar Typhimurium; conditions: Salmonella enterica, time 18-24 hrs
[29] = test system: Escherichia coli; experiment: Antimicrobial activity against Escherichia coli 25922 assessed as absence bacterial growth measured after 18 to 24 hrs incubation in presence of 50% serum by NCCLS method; type: functional; conditions: time 18-24 hrs
[30] = test system: Escherichia coli; experiment: Antimicrobial activity against Escherichia coli 25922 assessed as absence bacterial growth measured after 18 to 24 hrs incubation in presence of 25% serum by NCCLS method; type: functional; conditions: time 18-24 hrs
[31] = test system: Escherichia coli; experiment: Antimicrobial activity against Escherichia coli 25922 assessed as absence bacterial growth measured after 18 to 24 hrs incubation in presence of 12.5% serum by NCCLS method; type: functional; conditions: time 18-24 hrs
[32] = test system: Escherichia coli; experiment: Antimicrobial activity against Escherichia coli 25922 assessed as absence bacterial growth measured after 18 to 24 hrs incubation in presence of NaCl by NCCLS method; type: functional; conditions: time 18-24 hrs
[33] = test system: Escherichia coli; experiment: Antimicrobial activity against Escherichia coli 25922 assessed as absence bacterial growth measured after 18 to 24 hrs incubation in presence of KCl by NCCLS method; type: functional; conditions: time 18-24 hrs
[34] = test system: Escherichia coli; experiment: Antimicrobial activity against Escherichia coli 25922 assessed as absence bacterial growth measured after 18 to 24 hrs incubation in presence of NH4Cl by NCCLS method; type: functional; conditions: time 18-24 hrs
[35] = test system: Escherichia coli; experiment: Antimicrobial activity against Escherichia coli 25922 assessed as absence bacterial growth measured after 18 to 24 hrs incubation in presence of MgCl2 by NCCLS method; type: functional; conditions: time 18-24 hrs
[36] = test system: Escherichia coli; experiment: Antimicrobial activity against Escherichia coli 25922 assessed as absence bacterial growth measured after 18 to 24 hrs incubation in presence of ZnCl2 by NCCLS method; type: functional; conditions: time 18-24 hrs
[37] = test system: Escherichia coli; experiment: Antimicrobial activity against Escherichia coli 25922 assessed as absence bacterial growth measured after 18 to 24 hrs incubation in presence of FeCl3 by NCCLS method; type: functional; conditions: time 18-24 hrs
[38] = test system: Erythrocyte; experiment: Hemolytic activity in human RBC at effective concentration measured after 1 hr by microplate reader analysis; type: toxicity, cell-based
[39] = Cytotoxicity against mouse RAW264.7 cells assessed as cell survival rate measured after 8 hrs by MTT assay; type: toxicity, cell-based
[40] = Cytotoxicity against human HEK-293T cells assessed as cell survival rate measured after 8 hrs by MTT assay; type: toxicity, cell-based
[41] = Cytotoxicity against porcine IPEC-J2 cells assessed as cell survival rate measured after 8 hrs by MTT assay; type: toxicity, cell-based, Sus scrofa; conditions: pig

Substance: H-GKLWLKGIKLWLKGGKLWLKG-NH2
- MIC [1]: 2 µM
- MIC [2]: 1 µM
- MIC [3]: 2 µM
- MIC [4]: 1 µM
- MIC [5]: 4 µM
- MIC [6]: 2 µM
- MIC [7]: 4 µM
- MIC [8]: > 32 µM
- MIC [9]: 2 µM
- MIC [10]: 8 µM
- MIC [11]: 2 µM
- MIC [12]: 4 µM
- MIC [13]: 4 µM
- MBC [14]: 2 µM
- MBC [15]: 1 µM
- MBC [16]: 2 µM
- MBC [17]: 8 µM
- MBC [18]: 1 µM
- MBC [19]: 8 µM
- MBC [20]: 2 µM
- MBC [21]: 8 µM
- MBC [22]: > 32 µM
- MBC [23]: 2 µM
- MBC [24]: 8 µM
- MBC [25]: 2 µM
- MBC [26]: 4 µM
- MBC [27]: 4 µM
- MIC [28]: 8 µM
- MIC [29]: > 32 µM
- MIC [30]: > 32 µM
- MIC [31]: 16 µM
- MIC [32]: 4 µM
- MIC [33]: 2 µM
- MIC [34]: 2 µM
- MIC [35]: 8 µM
- MIC [36]: 2 µM
- MIC [37]: 2 µM
- HC10 [38]: 64 µM
- IC50 at 8 h [39]: 36.9 µM
- IC50 at 8 h [40]: 33.5 µM
- IC50 at 8 h [41]: 18.9 µM

Substance: H-GKLWLKGLKLWLKGGKLWLKG-NH2
- MIC [1]: 2 µM
- MIC [2]: 1 µM
- MIC [3]: 1 µM
- MIC [4]: 1 µM
- MIC [5]: 4 µM
- MIC [6]: 2 µM
- MIC [7]: 4 µM
- MIC [8]: > 32 µM
- MIC [9]: 4 µM
- MIC [10]: 4 µM
- MIC [11]: 2 µM
- MIC [12]: 2 µM
- MIC [13]: 4 µM
- MBC [14]: 2 µM
- MBC [15]: 1 µM
- MBC [16]: 1 µM
- MBC [17]: 16 µM
- MBC [18]: 1 µM
- MBC [19]: 32 µM
- MBC [20]: 2 µM
- MBC [21]: 4 µM
- MBC [22]: > 32 µM
- MBC [23]: 4 µM
- MBC [24]: 4 µM
- MBC [25]: 2 µM
- MBC [26]: 4 µM
- MBC [27]: 8 µM
- MIC [28]: 4 µM
- MIC [29]: > 32 µM
- MIC [30]: > 32 µM
- MIC [31]: 16 µM
- MIC [32]: 4 µM
- MIC [33]: 2 µM
- MIC [34]: 2 µM
- MIC [35]: 4 µM
- MIC [36]: 2 µM
- MIC [37]: 2 µM
- HC10 [38]: 64 µM
- IC50 at 8 h [39]: 32.7 µM
- IC50 at 8 h [40]: 47.2 µM
- IC50 at 8 h [41]: 21.1 µM

Substance: H-GKLWLKGMKLWLKGGKLWLKG-NH2
- MIC [1]: 2 µM
- MIC [2]: 1 µM
- MIC [3]: 2 µM
- MIC [4]: 1 µM
- MIC [5]: 4 µM
- MIC [6]: 1 µM
- MIC [7]: 4 µM
- MIC [8]: > 32 µM
- MIC [9]: 1 µM
- MIC [10]: 4 µM
- MIC [11]: 2 µM
- MIC [12]: 4 µM
- MIC [13]: 4 µM
- MBC [14]: 2 µM
- MBC [15]: 1 µM
- MBC [16]: 2 µM
- MBC [17]: 8 µM
- MBC [18]: 1 µM
- MBC [19]: 8 µM
- MBC [20]: 1 µM
- MBC [21]: 8 µM
- MBC [22]: > 32 µM
- MBC [23]: 2 µM
- MBC [24]: 4 µM
- MBC [25]: 2 µM
- MBC [26]: 4 µM
- MBC [27]: 16 µM
- MIC [28]: 4 µM
- MIC [29]: > 32 µM
- MIC [30]: > 32 µM
- MIC [31]: 32 µM
- MIC [32]: 8 µM
- MIC [33]: 2 µM
- MIC [34]: 2 µM
- MIC [35]: 8 µM
- MIC [36]: 2 µM
- MIC [37]: 2 µM
- HC10 [38]: 128 µM
- IC50 at 8 h [39]: > 64 µM
- IC50 at 8 h [40]: > 64 µM
- IC50 at 8 h [41]: 21 µM
